Reference: patent US20140066389A1, “METHOD AND PHARMACEUTICAL TO TREAT SPINAL DISCS” (priority 2000, published 2014)

Test system: spinal disc
Assay: Disc injections containing only one constituent
Format: in vivo
Details: injections with only one of glucosamine and chondroitin sulfate
Source text: Common to all formulations according to this invention is the inclusion, in an injectable tolerated by the spinal disc, of both glucosamine and chondroitin sulfate (in a buffered injectable solution).

Row | Compound | value of the injection
1 | N[C@H]1C(O)O[C@H](CO)[C@@H](O)[C@@H]1O (some centres unmarked) [glucosamine] | without value
2 | chondroitin sulfate | without value
